Test results from patent US11554171B2, “Compounds and methods for the targeted degradation of bromodomain-containing proteins” (Arvinas Operations, Inc., priority 2015, dated 2023).

Test system: c-myc in 22RV-1 cells
Test: Human c-myc ELISA assay
Format: cell-based
Conditions: Homo sapiens; for Emax: 22Rv1, 18 h, read-out: Degradation of BRD4: Maximum inhibition (%) c-Myc ELISA in 22RV1 cells; for DC50: 22Rv1, read-out: Degradation of BRD4: DC50 (uM) c-Myc ELISA in 22RV1 cells
Method in brief: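 c-myc levels measured by ELISA in RIPA lysates of 22RV-1 cells, calibrated with a 333-0 pg/ml standard curve. Lysates came from cells exposed for 18 h to an 8-point, 1:3 dose series starting at 300 nM or 1 μM final in 0.1% DMSO. Suppression potency given as DC50.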

| Compound | Emax [%] | DC50 [µM] |
| --- | --- | --- |
| Cc1ncsc1-c1ccc([C@H](C)NC(=O)[C@@H]2C[C@@H](O)CN2C(=O)[C@@H](NC(=O)CN2CCC(O[C@H]3C[C@H](NC(=O)C[C@@H]4N=C(c5ccc(Cl)cc5)c5ccccc5-c5c(C)noc54)C3)CC2)C(C)(C)C)cc1 [Example 350, (2S,4R)-1-[(2S)-3,3-dimethyl-2-(2-{4-[(1,3-trans)-3-{2-[(7S)-9-(4-chlorophenyl)-3-methyl-5-oxa-4,8-diazatricyclo[8.4.0.0^2,^6]tetradeca-1(10),2(6),3,8,11,13-hexaen-7-yl]acetamido}cyclobutoxy]piperidin-1-yl}acetamido)butanoyl]-4-hydroxy-N-[(1S)-1-[4-(4-methyl-1,3-thiazol-5-yl)phenyl]ethyl]pyrrolidine-2-carboxamide] | 100 | < 0.01 |
| Cc1ncsc1-c1ccc(CNC(=O)[C@@H]2C[C@@H](O)CN2C(=O)[C@@H](NC(=O)CCN2CCC(OCCNC(=O)C[C@@H]3N=C(c4ccc(Cl)cc4)c4c(sc(C)c4C)-n4c(C)nnc43)CC2)C(C)(C)C)cc1 [Example 123] | 19.7 | > 1 |
| Cc1ncsc1-c1ccc([C@H](C)NC(=O)[C@@H]2C[C@@H](O)CN2C(=O)[C@@H](NC(=O)COCCCOCCOc2cccc(NC(=O)C[C@@H]3N=C(c4ccc(Cl)cc4)c4c(sc(C)c4C)-n4c(C)nnc43)c2)C(C)(C)C)cc1 [Example 129] | 96 | < 0.01 |
| Cc1ncsc1-c1ccc([C@H](C)NC(=O)[C@@H]2C[C@@H](O)CN2C(=O)[C@@H](NC(=O)COc2ccc(OCCNC(=O)C[C@@H]3N=C(c4ccc(Cl)cc4)c4c(sc(C)c4C)-n4c(C)nnc43)nc2)C(C)(C)C)cc1 [Example 128, (2S,4R)-1-[(2S)-2-(2-{[6-(2-{2-[(9S)-7-(4-chlorophenyl)-4,5,13-trimethyl-3-thia-1,8,11,12-tetraazatricyclo[8.3.0.0^2,^6]trideca-2(6),4,7,10,12-pentaen-9-yl]acetamido}ethoxy)pyridin-3-yl]oxy}acetamido)-3,3-dimethylbutanoyl]-4-hydroxy-N-[(1S)-1-[4-(4-methyl-1,3-thiazol-5-yl)phenyl]ethyl]pyrrolidine-2-carboxamide] | 100 | < 0.01 |
| Cc1ncsc1-c1ccc(CNC(=O)[C@@H]2C[C@@H](O)CN2C(=O)[C@@H](NC(=O)COCCCOCCCOc2ccc(NC(=O)C[C@@H]3N=C(c4ccc(Br)cc4)c4c(sc(C)c4C)-n4c(C)nnc43)cc2)C(C)(C)C)cc1 [Example 62] | 98.5 | 0.01 to 0.1 |
| Cc1ncsc1-c1ccc(CNC(=O)[C@@H]2C[C@@H](O)CN2C(=O)[C@@H](NC(=O)COCCCCCOc2cccc(NC(=O)C[C@@H]3N=C(c4ccc(Cl)cc4)c4c(sc(C)c4C)-n4c(C)nnc43)c2)C(C)(C)C)cc1 [Example 125] | 99.5 | < 0.01 |
| Cc1ncsc1-c1ccc([C@H](C)NC(=O)[C@@H]2C[C@@H](O)CN2C(=O)[C@H](C(C)C)n2cc(-c3ccnc(N4CC(NC(=O)C[C@@H]5N=C(c6ccc(Cl)cc6)c6c(sc(C)c6C)-n6c(C)nnc65)C4)c3)cn2)cc1 [Example 248] | 95.9 | 0.01 to 0.1 |
| Cc1ncsc1-c1ccc([C@H](C)NC(=O)[C@@H]2C[C@@H](O)CN2C(=O)[C@@H](NC(=O)CCc2ccc(O[C@H]3C[C@@H](NC(=O)C[C@@H]4N=C(c5ccc(Cl)cc5)c5c(sc(C)c5C)-n5c(C)nnc54)C3)nc2)C(C)(C)C)cc1 [Example 171] | 97 | < 0.01 |
| Cc1ncsc1-c1ccc(CNC(=O)[C@@H]2C[C@@H](O)CN2C(=O)[C@@H](NC(=O)COCCCCCCNC(=O)C[C@@H]2N=C(c3ccc(Cl)cc3)c3c(sc(C)c3C)-n3c(C)nnc32)C(C)(C)C)cc1 [Example 82] | 100 | 0.01 to 0.1 |
| Cc1sc2c(c1C)C(c1ccc(Cl)cc1)=N[C@@H](CC(=O)N[C@H]1C[C@H](Oc3ccc(CC(=O)N[C@H](C(=O)N4C[C@H](O)C[C@H]4C(=O)N[C@@H](C)c4ccc(S(C)(=O)=O)cc4)C(C)(C)C)cc3)C1)c1nnc(C)n1-2 [Example 307] | 15 | > 1 |
| Cc1ncsc1-c1ccc([C@H](C)NC(=O)[C@@H]2C[C@@H](O)CN2C(=O)[C@@H](C(C)C)n2cc(-c3ccnc(O[C@H]4C[C@H](NC(=O)C[C@@H]5N=C(c6ccc(Cl)cc6)c6c(sc(C)c6C)-n6c(C)nnc65)C4)c3)cn2)cc1 [Example 220] | 66.4 | 0.1 to 1 |
| Cc1ncsc1-c1ccc([C@H](C)NC(=O)[C@@H]2C[C@@H](O)CN2C(=O)[C@@H](NC(=O)CN2CCC(O[C@H]3C[C@@H](NC(=O)C[C@@H]4N=C(c5ccc(Cl)cc5)c5c(sc(C)c5C)-n5c(C)nnc54)C3)CC2)C(C)(C)C)cc1 [Example 257, (2S,4R)-1-[(2S)-3,3-dimethyl-2-(2-{4-[(1,3-cis)-3-{2-[(9S)-7-(4-chlorophenyl)-4,5,13-trimethyl-3-thia-1,8,11,12-tetraazatricyclo[8.3.0.0^2,^6]trideca-2(6),4,7,10,12-pentaen-9-yl]acetamido}cyclobutoxy]piperidin-1-yl}acetamido)butanoyl]-4-hydroxy-N-[(1S)-1-[4-(4-methyl-1,3-thiazol-5-yl)phenyl]ethyl]pyrrolidine-2-carboxamide] | 87 | 0.01 to 0.1 |
| Cc1ncsc1-c1ccc(CNC(=O)[C@@H]2C[C@@H](O)CN2C(=O)[C@H](c2cc(OCCN3CC[C@@H](NC(=O)C[C@@H]4N=C(c5ccc(Cl)cc5)c5c(sc(C)c5C)-n5c(C)nnc54)C3)no2)C(C)C)cc1 (single isomer, unassigned) [Example 311] | 43.6 | > 1 |
| Cc1ncsc1-c1ccc([C@H](C)NC(=O)[C@@H]2C[C@@H](O)CN2C(=O)[C@@H](NC(=O)Cc2ccc(N3CC[C@@H](NC(=O)C[C@@H]4N=C(c5ccc(Cl)cc5)c5c(sc(C)c5C)-n5c(C)nnc54)C3)cc2)C(C)(C)C)cc1 [Example 230, (2S,4R)-1-[(2S)-2-(2-{4-[(3R)-3-{2-[(9S)-7-(4-chlorophenyl)-4,5,13-trimethyl-3-thia-1,8,11,12-tetraazatricyclo[8.3.0.0^2,^6]trideca-2(6),4,7,10,12-pentaen-9-yl]acetamido}pyrrolidin-1-yl]phenyl}acetamido)-3,3-dimethylbutanoyl]-4-hydroxy-N-[(1S)-1-[4-(4-methyl-1,3-thiazol-5-yl)phenyl]ethyl]pyrrolidine-2-carboxamide] | 100 | < 0.01 |
| Cc1ncsc1-c1ccc([C@H](C)NC(=O)[C@@H]2C[C@@H](O)CN2C(=O)[C@@H](C(C)C)n2cc(-c3cc(O[C@H]4C[C@@H](NC(=O)C[C@@H]5N=C(c6ccc(Cl)cc6)c6c(sc(C)c6C)-n6c(C)nnc65)C4)ccn3)cn2)cc1 [Example 303] | 9.8 | > 1 |
| Cc1ncsc1-c1ccc([C@H](C)NC(=O)[C@@H]2C[C@@H](O)CN2C(=O)[C@@H](NC(=O)COc2ccc(O[C@@H](C)CNC(=O)C[C@@H]3N=C(c4ccc(Cl)cc4)c4c(sc(C)c4C)-n4c(C)nnc43)cc2)C(C)(C)C)cc1 [Example 135, (2S,4R)-1-[(2S)-2-{2-[(6-{[(2S)-1-{2-[(9S)-7-(4-chlorophenyl)-4,5,13-trimethyl-3-thia-1,8,11,12-tetraazatricyclo[8.3.0.0^2,^6]trideca-2(6),4,7,10,12-pentaen-9-yl]acetamido}propan-2-yl]oxy}pyridin-3-yl)oxy]acetamido}-3,3-dimethylbutanoyl]-4-hydroxy-N-[(1S)-1-[4-(4-methyl-1,3-thiazol-5-yl)phenyl]ethyl]pyrrolidine-2-carboxamide] | 99 | < 0.01 |
| Cc1ncsc1-c1ccc(CNC(=O)[C@@H]2C[C@@H](O)CN2C(=O)[C@@H](NC(=O)c2cccc(CCOCCNC(=O)C[C@@H]3N=C(c4ccc(Cl)cc4)c4c(sc(C)c4C)-n4c(C)nnc43)n2)C(C)(C)C)cc1 [Example 164] | 96 | 0.01 to 0.1 |
| Cc1ncsc1-c1ccc(CNC(=O)[C@@H]2C[C@@H](O)CN2C(=O)[C@@H](NC(=O)COCCCOc2ccc(-c3ccc(NC(=O)C[C@@H]4N=C(c5ccc(Cl)cc5)c5c(sc(C)c5C)-n5c(C)nnc54)c(F)c3)nc2)C(C)(C)C)cc1 [Example 24] | 87.5 | 0.01 to 0.1 |
| Cc1ncsc1-c1ccc([C@H](C)NC(=O)[C@@H]2C[C@@H](O)CN2C(=O)[C@@H](NC(=O)COCCOCCCNC(=O)C[C@@H]2N=C(c3ccc(Cl)cc3)c3c(sc(C)c3C)-n3c(C)nnc32)C(C)(C)C)cc1 [Example 147] | 98.5 | < 0.01 |
| Cc1ncsc1-c1ccc(CNC(=O)C2C[C@@H](O)CN2C(=O)[C@@H](NC(=O)c2cn3cc(OCCNC(=O)C[C@@H]4N=C(c5ccc(Cl)cc5)c5c(sc(C)c5C)-n5c(C)nnc54)ccc3n2)C(C)(C)C)cc1 (stereo partly drawn) [Example 96] | 67.9 | 0.1 to 1 |
| Cc1ncsc1-c1ccc([C@H](C)NC(=O)[C@H]2C[C@H](O)CN2C(=O)[C@@H](NC(=O)COc2ccc(O[C@H]3C[C@@H](NC(=O)C[C@@H]4N=C(c5ccc(Cl)cc5)c5c(sc(C)c5C)-n5c(C)nnc54)C3)nc2)C(C)(C)C)cc1 [Example 169] | 42.2 | > 1 |
| Cc1ncsc1-c1ccc(CNC(=O)[C@@H]2C[C@@H](O)CN2C(=O)[C@@H](NC(=O)COCCCOc2ccc(-c3cnc(NC(=O)C[C@@H]4N=C(c5ccc(Cl)cc5)c5c(sc(C)c5C)-n5c(C)nnc54)cn3)cc2F)C(C)(C)C)cc1 [Example 22] | 94 | 0.01 to 0.1 |
| Cc1ncoc1-c1ccc([C@H](C)NC(=O)[C@@H]2C[C@@H](O)CN2C(=O)[C@@H](NC(=O)COc2ccc(O[C@H]3C[C@@H](NC(=O)C[C@@H]4N=C(c5ccc(Cl)cc5)c5c(sc(C)c5C)-n5c(C)nnc54)C3)nc2)C(C)(C)C)cc1 [Example 278] | 95.4 | < 0.01 |
| Cc1ncsc1-c1ccc([C@H](C)NC(=O)[C@@H]2C[C@@H](O)CN2C(=O)[C@H](C(C)C)n2cc(-c3cc(F)cc(O[C@H]4C[C@H](NC(=O)C[C@@H]5N=C(c6ccc(Cl)cc6)c6c(sc(C)c6C)-n6c(C)nnc65)C4)c3)cn2)cc1 [Example 254] | 95.4 | < 0.01 |
